Data on 1 molecule can be found in patent publication US11253517B2, “Small molecule regulators of steroid receptor coactivators and methods of use thereof” (BAYLOR COLLEGE OF MEDICINE, priority 2016, dated 2022).

Holding throughout (assay): Kinase-Glo Luminescent Kinase Assay
Holding throughout (format): biochemical
In general terms: Kinase-Glo measures the ATP left after a reaction by luminescence.

In assay [1] the target is T1, IKKb (Homo sapiens, UniProt O14920).
T1 construct: purchased Promega
T1 sequence (O14920 1-756): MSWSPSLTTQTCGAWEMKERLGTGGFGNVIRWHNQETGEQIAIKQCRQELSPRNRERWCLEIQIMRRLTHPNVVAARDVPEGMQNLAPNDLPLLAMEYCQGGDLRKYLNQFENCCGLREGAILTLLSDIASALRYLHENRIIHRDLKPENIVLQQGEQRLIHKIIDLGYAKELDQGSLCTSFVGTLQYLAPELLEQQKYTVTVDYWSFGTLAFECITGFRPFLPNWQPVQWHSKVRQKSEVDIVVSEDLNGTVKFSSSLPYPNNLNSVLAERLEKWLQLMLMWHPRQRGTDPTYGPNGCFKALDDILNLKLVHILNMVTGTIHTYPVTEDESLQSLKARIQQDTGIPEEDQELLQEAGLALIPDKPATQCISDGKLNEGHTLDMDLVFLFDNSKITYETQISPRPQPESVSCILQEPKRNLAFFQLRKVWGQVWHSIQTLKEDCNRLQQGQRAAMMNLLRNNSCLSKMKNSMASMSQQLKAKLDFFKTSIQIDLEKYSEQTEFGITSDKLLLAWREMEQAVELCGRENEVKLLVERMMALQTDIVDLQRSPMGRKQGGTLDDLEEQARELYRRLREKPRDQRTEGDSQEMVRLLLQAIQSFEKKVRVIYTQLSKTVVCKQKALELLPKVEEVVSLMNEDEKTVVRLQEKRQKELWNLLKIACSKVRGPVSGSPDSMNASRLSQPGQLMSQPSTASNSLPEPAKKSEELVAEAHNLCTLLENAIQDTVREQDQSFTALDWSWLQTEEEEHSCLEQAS
Here is the method:
(§1) SI-12 was also tested for its ability to disrupt kinase activity. The effects of the compound were tested on a panel of 24 kinases using a Kinase-Glo Luminescent Kinase Assay system (Promega; Madison, Wis.). SI-12 was tested, at concentrations of 1000 nM, 50 nM, and 5 nM, for its ability to interfere with recombinant kinases in the assay system. The amount of ATP to ADP conversion in the presence of SI-12 was compared to a DMSO vehicle control. The values shown in Table 3 represent the percentage of kinase activity compared to a DMSO vehicle control.
(§2) In Table 3, “−” represents less than 20% inhibition; “+” represents from 20% to 40% inhibition; “++” represents from 40% to 60% inhibition; and “+++” represents greater than 60% inhibition.

Assay [2] deals with T2, LCK (Homo sapiens, UniProt P06239).
T2 construct: purchased Promega
T2 sequence (P06239 whole entry): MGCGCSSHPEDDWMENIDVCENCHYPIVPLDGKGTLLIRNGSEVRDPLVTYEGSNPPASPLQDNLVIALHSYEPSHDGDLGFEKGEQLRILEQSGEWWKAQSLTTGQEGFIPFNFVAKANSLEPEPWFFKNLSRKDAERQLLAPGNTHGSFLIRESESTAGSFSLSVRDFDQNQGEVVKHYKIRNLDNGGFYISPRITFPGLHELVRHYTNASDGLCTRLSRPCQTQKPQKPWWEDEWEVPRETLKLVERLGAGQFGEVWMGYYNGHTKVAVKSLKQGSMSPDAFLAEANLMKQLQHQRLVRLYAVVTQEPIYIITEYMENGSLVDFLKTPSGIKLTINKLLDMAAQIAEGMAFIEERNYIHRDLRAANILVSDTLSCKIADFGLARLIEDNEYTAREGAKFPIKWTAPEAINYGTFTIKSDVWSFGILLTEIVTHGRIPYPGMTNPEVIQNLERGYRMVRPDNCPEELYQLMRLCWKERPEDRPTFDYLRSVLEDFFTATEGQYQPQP
Here is the method:
as §1, §2

In assay [3] the target is T3, TAK1-TAB1 (Homo sapiens, UniProt O43318).
T3 construct: purchased Promega
T3 sequence (O43318 with tags, fused parts or gaps limits assumed): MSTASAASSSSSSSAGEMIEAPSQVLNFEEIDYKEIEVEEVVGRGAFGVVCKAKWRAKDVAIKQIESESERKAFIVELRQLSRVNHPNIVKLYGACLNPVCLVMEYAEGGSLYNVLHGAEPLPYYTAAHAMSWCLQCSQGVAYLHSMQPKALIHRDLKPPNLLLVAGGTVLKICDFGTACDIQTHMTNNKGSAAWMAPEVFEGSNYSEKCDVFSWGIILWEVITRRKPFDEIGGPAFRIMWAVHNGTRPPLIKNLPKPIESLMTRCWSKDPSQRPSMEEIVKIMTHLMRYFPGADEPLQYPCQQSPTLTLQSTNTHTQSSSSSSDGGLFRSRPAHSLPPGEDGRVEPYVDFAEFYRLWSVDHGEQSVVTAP
Here is the method: as §1, §2

Assay [4] has as its target T4, JAK3 (Homo sapiens, UniProt P52333).
T4 construct: purchased Promega
T4 sequence (P52333 1-1124): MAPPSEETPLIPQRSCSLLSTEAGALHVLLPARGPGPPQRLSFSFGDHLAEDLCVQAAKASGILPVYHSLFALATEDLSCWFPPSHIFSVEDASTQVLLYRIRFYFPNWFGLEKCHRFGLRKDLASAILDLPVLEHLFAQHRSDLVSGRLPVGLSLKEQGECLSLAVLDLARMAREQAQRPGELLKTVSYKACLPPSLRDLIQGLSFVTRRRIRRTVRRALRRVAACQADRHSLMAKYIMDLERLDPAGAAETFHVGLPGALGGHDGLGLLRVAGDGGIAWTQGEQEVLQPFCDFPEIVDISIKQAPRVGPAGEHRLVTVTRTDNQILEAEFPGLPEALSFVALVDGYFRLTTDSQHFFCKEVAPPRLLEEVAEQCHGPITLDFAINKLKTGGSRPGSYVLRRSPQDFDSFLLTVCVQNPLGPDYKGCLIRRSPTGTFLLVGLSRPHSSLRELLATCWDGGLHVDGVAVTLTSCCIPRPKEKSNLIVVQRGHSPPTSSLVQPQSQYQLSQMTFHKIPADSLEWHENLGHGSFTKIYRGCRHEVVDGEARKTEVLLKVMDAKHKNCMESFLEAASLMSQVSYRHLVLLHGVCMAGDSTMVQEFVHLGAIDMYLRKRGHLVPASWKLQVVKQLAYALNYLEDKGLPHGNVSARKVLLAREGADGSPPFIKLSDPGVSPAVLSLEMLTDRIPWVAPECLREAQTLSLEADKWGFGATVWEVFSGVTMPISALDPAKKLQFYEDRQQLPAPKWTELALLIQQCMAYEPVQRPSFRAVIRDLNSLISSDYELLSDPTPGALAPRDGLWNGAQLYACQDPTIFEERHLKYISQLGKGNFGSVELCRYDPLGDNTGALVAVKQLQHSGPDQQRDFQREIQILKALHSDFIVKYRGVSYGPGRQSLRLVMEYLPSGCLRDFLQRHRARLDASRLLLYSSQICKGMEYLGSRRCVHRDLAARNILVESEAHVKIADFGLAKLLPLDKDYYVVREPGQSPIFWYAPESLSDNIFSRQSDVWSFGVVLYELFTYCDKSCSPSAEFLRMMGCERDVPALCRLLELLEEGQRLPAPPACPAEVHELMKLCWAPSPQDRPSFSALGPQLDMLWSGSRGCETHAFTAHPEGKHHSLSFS
Here is the method:
as §1, §2

SMILES strings stand for the structures.

For `CC(=NNc1nc2cc(F)c(F)cc2n1C)c1ccc(F)cn1` [SI-12], the figures for the IKKb kinase inhibition result in assay [1] (5 nM), in assay [1] (50 nM) and in assay [1] (1000 nM) were “++ (from 40% to 60% inhibition)”, “+++ (greater than 60% inhibition)” and “+++ (greater than 60% inhibition)”, respectively. Moreover, the LCK kinase inhibition entry in assay [2] (5 nM), in assay [2] (50 nM) and in assay [2] (1000 nM) was “− (less than 20% inhibition)” throughout. In addition, the TAK1-TAB1 kinase inhibition result in assay [3] (5 nM), in assay [3] (50 nM) and in assay [3] (1000 nM) was “− (less than 20% inhibition)” throughout. Also, the JAK3 kinase inhibition entry in assay [4] (5 nM) is “− (less than 20% inhibition)”; in assay [4] (50 nM) it was “+ (from 20% to 40% inhibition)”; in assay [4] (1000 nM), “+ (from 20% to 40% inhibition)”.
